Tests used:
[1] = tested on: DNA repair protein genes; test: DNA chip mRNA expression in yeast, DNA repair protein genes (Table 3); format: cell-based, Saccharomyces cerevisiae S288C; details: incubated two hours, concentrations as in the 1st table
Procedure: (§1) Yeast (Saccharomyces cerevisiae S288C (α SUC2mal mel gap2 CUP1)) were incubated at 25° C. on YPD medium (yeast extract 1%, polypepton 2%, glucose 2%). One of toxic chemical substances was added to the cells at logarithmic growth phase, and the cells were further incubated for two hours. Cells were cultured without any chemical substance in the same condition, and were used as control. Concentrations of the chemical substances were defined to inhibit the growth of the yeast but not lead to death.
(§2) After completion of the incubation, the culture was centrifuged to collect the cells. To the cells, sodium acetate buffer (50 mM sodium acetate, 10 mM EDTA, 1% SDS) was added, and the mixture was shaken at 65° C. for five minutes, followed by returning to room temperature, and obtaining the supernatant, of which the procedures were repeated two times. To the supernatant, ½ amount of a solution of phenol/chloroform was added, and the mixture was centrifuged to give a supernatant, which was added with an equal amount of chloroform, and the mixture was centrifuged to give a supernatant. To the supernatant, an equal amount of isopropanol containing 0.3 M sodium acetate was added, and the mixture was allowed to stand at room temperature for 30 minutes, after which the mixture was centrifuged to give a sediment of the whole RNAs. Seventy % ethanol was added to the sediment, and the mixture was again centrifuged to give a sediment, which was then dried and dissolved in water. mRNA was isolated from the whole RNAs as followings. In view of the fact that a poly A chain is attached to the 3′ terminus of mRNA, a polynucleotide having a poly T structure which was immobilized on the surface of latex beads was used to trap the mRNA, and then the mRNA was washed and eluted with spine column (Oligotex-dT30<Super>mRNA Purification Kit, Takara). Reverse transcription of the mRNA was conducted with a reverse transcriptase (Super Script II Reverse Transcriptase; catalogue No. 18064-014, GibcoBRL) using fluorescence-labeled nucleotides to give cDNAs that were introduced with Cy3-dUTP or Cy5-dUTP during the reverse transcription.
(§3) The labeled cDNAs were dissolved in TE buffer (10mM Tris-HCl/1 mM EDTA, pH8.0), and the solution was dropped on the DNA chip containing the whole genes of yeast (DNA Chip Research Inc. Japan) so that the cDNAs were hybridized on the DNA chip at 65° C. for over 12 hours. The fluoresces intensity of the DNA chip was read with a scanner, and the ratio relative to the fluorescence intensity resulting from the absence of chemical substance was estimated as the following, which is shown in Tables 1 to 9: […]

[2] = tested on: Detoxification protein genes; test: DNA chip mRNA expression in yeast, detoxification protein genes (Table 8); format: cell-based, Saccharomyces cerevisiae S288C
Procedure: as §1, §2, §3

SMILES: [Cl][Cd][Cl] [(2), CdCl2]
- The level of expressed mRNA in the presence of chemical substance/The level of expressed mRNA in the absence of chemical substance ([1]; yeast gene YAL015C): 1.1
- The level of expressed mRNA in the presence of chemical substance/The level of expressed mRNA in the absence of chemical substance ([1]; yeast gene YAR007C): 1.9
- The level of expressed mRNA in the presence of chemical substance/The level of expressed mRNA in the absence of chemical substance ([1]; yeast gene YBL019W): 9.1
- The level of expressed mRNA in the presence of chemical substance/The level of expressed mRNA in the absence of chemical substance ([1]; yeast gene YBR073W): 1.0
- The level of expressed mRNA in the presence of chemical substance/The level of expressed mRNA in the absence of chemical substance ([1]; yeast gene YBR272C): 1.8
- The level of expressed mRNA in the presence of chemical substance/The level of expressed mRNA in the absence of chemical substance ([1]; yeast gene YCR014C): 1.0
- The level of expressed mRNA in the presence of chemical substance/The level of expressed mRNA in the absence of chemical substance ([1]; yeast gene YDL017W): 2.3
- The level of expressed mRNA in the presence of chemical substance/The level of expressed mRNA in the absence of chemical substance ([1]; yeast gene YDL059C): 5.1
- The level of expressed mRNA in the presence of chemical substance/The level of expressed mRNA in the absence of chemical substance ([1]; yeast gene YDL200C): 2.0
- The level of expressed mRNA in the presence of chemical substance/The level of expressed mRNA in the absence of chemical substance ([1]; yeast gene YDR054C): 1.0
- The level of expressed mRNA in the presence of chemical substance/The level of expressed mRNA in the absence of chemical substance ([1]; yeast gene YDR369C): 1.1
- The level of expressed mRNA in the presence of chemical substance/The level of expressed mRNA in the absence of chemical substance ([1]; yeast gene YEL019C): 1.6
- The level of expressed mRNA in the presence of chemical substance/The level of expressed mRNA in the absence of chemical substance ([1]; yeast gene YEL037C): 2.0
- The level of expressed mRNA in the presence of chemical substance/The level of expressed mRNA in the absence of chemical substance ([1]; yeast gene YER162C): 1.2
- The level of expressed mRNA in the presence of chemical substance/The level of expressed mRNA in the absence of chemical substance ([1]; yeast gene YFL014W): 5.1
- The level of expressed mRNA in the presence of chemical substance/The level of expressed mRNA in the absence of chemical substance ([1]; yeast gene YGL058W): 1.1
- The level of expressed mRNA in the presence of chemical substance/The level of expressed mRNA in the absence of chemical substance ([1]; yeast gene YGL091C): 1.8
- The level of expressed mRNA in the presence of chemical substance/The level of expressed mRNA in the absence of chemical substance ([1]; yeast gene YGL127C): 1.9
- The level of expressed mRNA in the presence of chemical substance/The level of expressed mRNA in the absence of chemical substance ([1]; yeast gene YGL163C): 0.8
- The level of expressed mRNA in the presence of chemical substance/The level of expressed mRNA in the absence of chemical substance ([1]; yeast gene YGL249W): 0.8
- The level of expressed mRNA in the presence of chemical substance/The level of expressed mRNA in the absence of chemical substance ([1]; yeast gene YGR180C): 1.1
- The level of expressed mRNA in the presence of chemical substance/The level of expressed mRNA in the absence of chemical substance ([1]; yeast gene YGR231C): 1.2
- The level of expressed mRNA in the presence of chemical substance/The level of expressed mRNA in the absence of chemical substance ([1]; yeast gene YGR258C): 0.9
- The level of expressed mRNA in the presence of chemical substance/The level of expressed mRNA in the absence of chemical substance ([1]; yeast gene YHR164C): 1.3
- The level of expressed mRNA in the presence of chemical substance/The level of expressed mRNA in the absence of chemical substance ([1]; yeast gene YIL036W): 1.3
- The level of expressed mRNA in the presence of chemical substance/The level of expressed mRNA in the absence of chemical substance ([1]; yeast gene YIL072W): 3.1
- The level of expressed mRNA in the presence of chemical substance/The level of expressed mRNA in the absence of chemical substance ([1]; yeast gene YIL143C): 0.8
- The level of expressed mRNA in the presence of chemical substance/The level of expressed mRNA in the absence of chemical substance ([1]; yeast gene YIL153W): 1.4
- The level of expressed mRNA in the presence of chemical substance/The level of expressed mRNA in the absence of chemical substance ([1]; yeast gene YIR002C): 1.1
- The level of expressed mRNA in the presence of chemical substance/The level of expressed mRNA in the absence of chemical substance ([1]; yeast gene YJL026W): 2.4
- The level of expressed mRNA in the presence of chemical substance/The level of expressed mRNA in the absence of chemical substance ([1]; yeast gene YJR046W): 1.2
- The level of expressed mRNA in the presence of chemical substance/The level of expressed mRNA in the absence of chemical substance ([1]; yeast gene YJR052W): 1.0
- The level of expressed mRNA in the presence of chemical substance/The level of expressed mRNA in the absence of chemical substance ([1]; yeast gene YKL145W): 1.4
- The level of expressed mRNA in the presence of chemical substance/The level of expressed mRNA in the absence of chemical substance ([1]; yeast gene YLR103C): 1.5
- The level of expressed mRNA in the presence of chemical substance/The level of expressed mRNA in the absence of chemical substance ([1]; yeast gene YLR233C): 0.9
- The level of expressed mRNA in the presence of chemical substance/The level of expressed mRNA in the absence of chemical substance ([1]; yeast gene YLR288C): 0.8
- The level of expressed mRNA in the presence of chemical substance/The level of expressed mRNA in the absence of chemical substance ([1]; yeast gene YML032C): 0.9
- The level of expressed mRNA in the presence of chemical substance/The level of expressed mRNA in the absence of chemical substance ([1]; yeast gene YML058W): 1.2
- The level of expressed mRNA in the presence of chemical substance/The level of expressed mRNA in the absence of chemical substance ([1]; yeast gene YMR035W): 1.7
- The level of expressed mRNA in the presence of chemical substance/The level of expressed mRNA in the absence of chemical substance ([1]; yeast gene YMR072W): 1.0
- The level of expressed mRNA in the presence of chemical substance/The level of expressed mRNA in the absence of chemical substance ([1]; yeast gene YMR096W): 1.7
- The level of expressed mRNA in the presence of chemical substance/The level of expressed mRNA in the absence of chemical substance ([1]; yeast gene YMR284W): 1.0
- The level of expressed mRNA in the presence of chemical substance/The level of expressed mRNA in the absence of chemical substance ([1]; yeast gene YNL213C): 11.6
- The level of expressed mRNA in the presence of chemical substance/The level of expressed mRNA in the absence of chemical substance ([1]; yeast gene YNL250W): 2.2
- The level of expressed mRNA in the presence of chemical substance/The level of expressed mRNA in the absence of chemical substance ([1]; yeast gene YNL261W): 1.3
- The level of expressed mRNA in the presence of chemical substance/The level of expressed mRNA in the absence of chemical substance ([1]; yeast gene YNL312W): 1.0
- The level of expressed mRNA in the presence of chemical substance/The level of expressed mRNA in the absence of chemical substance ([1]; yeast gene YOL043C): 0.9
- The level of expressed mRNA in the presence of chemical substance/The level of expressed mRNA in the absence of chemical substance ([1]; yeast gene YOR005C): 1.8
- The level of expressed mRNA in the presence of chemical substance/The level of expressed mRNA in the absence of chemical substance ([1]; yeast gene YOR386W): 0.8
- The level of expressed mRNA in the presence of chemical substance/The level of expressed mRNA in the absence of chemical substance ([1]; yeast gene YPL022W): 0.8
- The level of expressed mRNA in the presence of chemical substance/The level of expressed mRNA in the absence of chemical substance ([1]; yeast gene YPL164C): 0.7
- The level of expressed mRNA in the presence of chemical substance/The level of expressed mRNA in the absence of chemical substance ([1]; yeast gene YPL194W): 1.4
- The level of expressed mRNA in the presence of chemical substance/The level of expressed mRNA in the absence of chemical substance ([1]; yeast gene YPR025C): 0.8
- The level of expressed mRNA in the presence of chemical substance/The level of expressed mRNA in the absence of chemical substance ([2]; yeast gene YBL064C): 2.8
- The level of expressed mRNA in the presence of chemical substance/The level of expressed mRNA in the absence of chemical substance ([2]; yeast gene YBR008C): 2.4
- The level of expressed mRNA in the presence of chemical substance/The level of expressed mRNA in the absence of chemical substance ([2]; yeast gene YBR145W): 0.7
